Test results: PubChem BioAssay (NCI)
Where “and” joins values, the source holds several entries; their conditions need not be identical. Equal entries are not always repeated.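 Growth conditions: 96-well plates. Treatment: test compound, 48 hours, 5 concentrations. Analysis: linear interpolation between bracketing concentrations; unreached endpoints set to highest concentration. GI50 = concentration required for 50% inhibition of growth. TGI: concentration producing complete growth inhibition.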

What was measured:
Assay in all cases: NCI tumour cell line growth inhibition, 48 h
BT-549 breast = tested on: BT-549 breast
T-47D breast = tested on: T-47D breast
NCI/ADR-RES ovarian = tested on: NCI/ADR-RES ovarian
DMS 273 small cell lung = tested on: DMS 273 small cell lung
RXF-631 renal = tested on: RXF-631 renal
MDA-N = tested on: MDA-N
XF 498 CNS = tested on: XF 498 CNS
LXFL 529 NSCLC = tested on: LXFL 529 NSCLC

## COc1ccc2c(c1)CCC1C2CC[C@]2(C)/C(=N/OC(=O)Cc3ccccc3)CCC12 (some centres not stated)
BT-549 breast
  GI50: 24.7 µM
  TGI: 49.4 µM
T-47D breast
  GI50: 19.5 µM
  TGI: 52.2 µM
NCI/ADR-RES ovarian
  GI50: 20.9 µM
  TGI: 39.8 µM

## CCC(=C/[C@H](C)C/C=C/C(C)=C/[C@@H](C)C(=O)[C@@H](C)[C@H](O)[C@@H](C)CC)/C=C/[C@H]1OC(=O)C=C[C@H]1C
BT-549 breast
  GI50: < 0.01 µM
T-47D breast
  GI50: < 0.01 µM
  TGI: 0.88 µM
NCI/ADR-RES ovarian
  GI50: < 0.01 µM
  TGI: 1.39 µM

## COc1ccc(-c2ccc(C3CC(c4ccc(Cl)cc4)=NN3)o2)c([N+](=O)[O-])c1 (configuration not stated)
BT-549 breast
  GI50: > 100 µM
  TGI: > 100 µM
T-47D breast
  GI50: > 100 µM
  TGI: > 100 µM
NCI/ADR-RES ovarian
  GI50: > 100 µM
  TGI: > 100 µM

## COc1ccc2c(c1)CC[C@@H]1[C@@H]2CC[C@]2(C)C(c3ccco3)=C(C=O)C[C@@H]12
BT-549 breast
  GI50: 17.7 µM
  TGI: 43.3 µM
T-47D breast
  GI50: 18.8 µM
  TGI: 92.3 µM
NCI/ADR-RES ovarian
  GI50: 11.5 µM
  TGI: 64.6 µM

## COc1cc2nc(Nc3cccc(F)c3)nc(Nc3cc(C)[nH]n3)c2cc1OC
BT-549 breast
  GI50: 1.68 µM
  TGI: 3.2 µM
T-47D breast
  GI50: 1.36 µM
  TGI: 4.05 µM
NCI/ADR-RES ovarian
  GI50: 1.6 µM
  TGI: 3.64 µM

## CN(C)CCNC(=O)c1cccc2[nH]c(-c3ccccc3)nc12
DMS 273 small cell lung
  TGI: 39.6 µM
RXF-631 renal
  TGI: 57.9 µM

## Nc1ncnc2c1ncn2C1OC(CO)=CC1O (configuration not stated)
T-47D breast
  TGI: > 37.5 µM
NCI/ADR-RES ovarian
  TGI: > 37.5 µM
MDA-N
  TGI: > 37.5 µM

## Cn1cc(C2=C(c3cn(CCN)c4ccccc34)C(=O)NC2=O)c2ccccc21
BT-549 breast
  GI50: 7.82 µM
  TGI: > 23.8 µM
T-47D breast
  GI50: 5.32 µM
  TGI: 14.7 µM
NCI/ADR-RES ovarian
  GI50: 10.7 µM
  TGI: > 25 µM

## C=C(C)[C@@H]1CC[C@]2(C)[C@H](CC[C@@H]3[C@H]4[C@H]5OC[C@@]4(CCC5(C)C)CC[C@]32C)[C@@]1(C)CCCN
BT-549 breast
  GI50: 1.67 µM
  TGI: 3.12 µM
T-47D breast
  GI50: 1.88 µM
  TGI: 4.21 µM
NCI/ADR-RES ovarian
  GI50: 1.95 µM
  TGI: 3.89 µM

## NS(=O)(=O)c1ccc(CCN=C=S)cc1
BT-549 breast
  GI50: 2.03 µM
  TGI: 4.37 µM
T-47D breast
  GI50: 0.638 µM
  TGI: 3.36 µM
NCI/ADR-RES ovarian
  GI50: 3.2 µM
  TGI: 11.3 µM

## Cc1ccccc1CN1CC=c2ccccc2=N1
XF 498 CNS
  TGI: > 100 µM
DMS 273 small cell lung
  TGI: > 100 µM
RXF-631 renal
  TGI: > 100 µM

## Cc1nc(NC(=O)CCCN2C(=O)c3cccc4cccc(c34)C2=O)sc1C(=O)Nc1cc(C(=O)NCCCN(C)C)n(C)c1
T-47D breast
  GI50: > 100 µM
  TGI: > 100 µM
NCI/ADR-RES ovarian
  GI50: > 100 µM
  TGI: > 100 µM

## CCCCCCCC[N+](C)(CCCCCCCC)CCCCCCCC
BT-549 breast
  GI50: 0.309 µM
  TGI: 0.977 µM
T-47D breast
  GI50: 0.258 µM
  TGI: 1.73 µM
NCI/ADR-RES ovarian
  GI50: 1.51 µM
  TGI: 3.23 µM

## C=C1C(=O)O[C@H]2[C@H]1CC/C(COC(=O)NCc1c[nH]c3ccc(Cl)cc13)=C\CC[C@@]1(C)O[C@@H]21
BT-549 breast
  GI50: 1.18 µM
  TGI: 2.61 µM
NCI/ADR-RES ovarian
  GI50: 2.84 µM
  TGI: 11.3 µM

## CCC(C)C(NC(=O)C1CCCN1C(=O)C(NC(=O)C(C)N)C(C)C)C(N)=O (configuration not stated)
BT-549 breast
  GI50: > 100 µM
  TGI: > 100 µM
T-47D breast
  GI50: > 100 µM
  TGI: > 100 µM

## CCn1cnc2c(Nc3cccc(Cl)c3)nc(N[C@@H]3CCCC[C@@H]3N)nc21
BT-549 breast
  GI50: 1.73 µM
  TGI: 3.73 µM
T-47D breast
  GI50: 1.98 µM
  TGI: 5.16 µM
NCI/ADR-RES ovarian
  GI50: 2.04 µM
  TGI: 6.71 µM

## COc1ccc(C2=NN(C(C)=O)C(c3cn(-c4ccccc4)nc3-c3ccc(Cl)cc3)C2)cc1 (configuration not stated)
BT-549 breast
  GI50: > 100 µM
  TGI: > 100 µM
T-47D breast
  GI50: > 100 µM
  TGI: > 100 µM
NCI/ADR-RES ovarian
  GI50: > 100 µM
  TGI: > 100 µM

## COc1ccc([N+](=O)[O-])c(S(=O)(=O)c2ccc(Cl)cc2)n1
BT-549 breast
  GI50: 2.75 µM
  TGI: 8.97 µM
T-47D breast
  GI50: 2.12 µM
  TGI: 5.41 µM
NCI/ADR-RES ovarian
  GI50: 4.93 µM
  TGI: > 100 µM

## O=C(NO)C12C3C4C1C1C2C3C41C(=O)NO (configuration not stated)
DMS 273 small cell lung
  TGI: > 100 µM
LXFL 529 NSCLC
  TGI: > 100 µM

## OCC12C3C4C1C1C2C3C41CO (configuration not stated)
XF 498 CNS
  TGI: > 100 µM
LXFL 529 NSCLC
  TGI: > 100 µM
RXF-631 renal
  TGI: > 100 µM

## Nc1nc2nc[nH]c2c(=O)[nH]1
XF 498 CNS
  TGI: > 100 µM
DMS 273 small cell lung
  TGI: > 100 µM
LXFL 529 NSCLC
  TGI: > 100 µM

## COC1=CC(c2ccc[nH]2)=N/C1=C\c1[nH]c(C)c(C(=O)CCCCC(=O)Nc2ccccc2)c1C
BT-549 breast
  GI50: 1.77 µM
  TGI: 13.4 µM
T-47D breast
  GI50: 1.99 µM
  TGI: 6.14 µM
NCI/ADR-RES ovarian
  GI50: 1.89 µM
  TGI: 3.69 µM

## CO[C@@H]1[C@H](OC(=O)NC(=O)CCl)CC[C@]2(CO2)[C@H]1[C@@]1(C)O[C@@H]1CC=C(C)C
BT-549 breast
  GI50: 16.8 µM
  TGI: 37.6 µM and 59.1 µM
LXFL 529 NSCLC
  GI50: 6.1 µM
  TGI: 20.9 µM
T-47D breast
  GI50: 4.03 µM
  TGI: 41.9 µM and 68.9 µM
NCI/ADR-RES ovarian
  GI50: 27.9 µM
  TGI: 62.4 µM and 111 µM
RXF-631 renal
  TGI: 3.14 µM
MDA-N
  TGI: 27.3 µM

## COc1ccc(/C=C/c2n[nH]c3ccc(N4CCOC4=O)cc23)cc1
BT-549 breast
  GI50: 1.14 µM
  TGI: 5.32 µM
T-47D breast
  GI50: 3.01 µM
  TGI: 8.56 µM
NCI/ADR-RES ovarian
  GI50: 2.99 µM
  TGI: 40.2 µM

## NCCNC(=S)S
BT-549 breast
  TGI: > 100 µM
T-47D breast
  TGI: > 100 µM
NCI/ADR-RES ovarian
  TGI: > 100 µM
MDA-N
  TGI: > 100 µM

## COc1cc(-n2cc(-c3ccc(Cl)cc3)[nH]c2=O)cc(OC)c1OC
BT-549 breast
  GI50: 27.1 µM
  TGI: 71.8 µM
NCI/ADR-RES ovarian
  GI50: 23.1 µM
  TGI: 63.6 µM

## COc1cc(C(=O)c2cc3c(cc2C)OCO3)cc(OC)c1OC
BT-549 breast
  GI50: 0.211 µM
  TGI: > 100 µM
T-47D breast
  GI50: 0.923 µM
  TGI: > 100 µM
NCI/ADR-RES ovarian
  GI50: 0.226 µM
  TGI: > 100 µM

## NS(=O)(=O)c1ccc(N2N=C3c4ccccc4CC3C2c2ccc(Cl)cc2)cc1 (configuration not stated)
T-47D breast
  GI50: 32.9 µM
  TGI: > 100 µM
NCI/ADR-RES ovarian
  GI50: 10.3 µM
  TGI: 38.5 µM

## COC1=CC(c2ccc[nH]2)=N/C1=C\c1ccc[nH]1
BT-549 breast
  GI50: 0.145 µM
  TGI: 5.71 µM
T-47D breast
  GI50: 0.151 µM
  TGI: 1.77 µM
NCI/ADR-RES ovarian
  GI50: 0.304 µM
  TGI: 13.8 µM

## CSc1nc2sc3cc(Cl)ccc3n2c(=N)c1C#N
BT-549 breast
  GI50: 25.4 µM
  TGI: > 100 µM
T-47D breast
  GI50: 23.7 µM
  TGI: > 100 µM
NCI/ADR-RES ovarian
  GI50: > 42.2 µM
  TGI: > 100 µM

## CC(C)=CC(=O)Cc1nc2cc(C)c(C)cc2[nH]c1=O
DMS 273 small cell lung
  TGI: > 100 µM
LXFL 529 NSCLC
  TGI: > 100 µM
RXF-631 renal
  TGI: > 100 µM

## O=C(/C=C\c1ccc(Cl)cc1Cl)c1cccs1
T-47D breast
  TGI: 55.7 µM
NCI/ADR-RES ovarian
  TGI: > 100 µM
MDA-N
  TGI: 35.8 µM
